According to ChEMBL document CHEMBL2390863, “Synthesis and evaluation of 4-substituted coumarins as novel acetylcholinesterase inhibitors” (Eur J Med Chem, 2013):
pIC50: −log10 of the molar value.

Key:
[1] = molecular target: Cholinesterase (Equus caballus, UniProt P81908); experiment: Inhibition of equine serum BChE using butylthiocholine iodide as substrate preincubated for 10 mins prior to substrate addition by Ellman's method
[2] = molecular target: Acetylcholinesterase (Electrophorus electricus, UniProt O42275); experiment: Inhibition of electric eel AChE using acetylthiocholine iodide as substrate preincubated for 10 mins prior to substrate addition by Ellman's method
[3] = Selectivity ratio of IC50 for equine serum BChE to IC50 for electric eel AChE
[4] = Antioxidant activity assessed as Fe2+ formation by FRAP assay; type: functional

Chain of Cholinesterase (P81908 whole entry): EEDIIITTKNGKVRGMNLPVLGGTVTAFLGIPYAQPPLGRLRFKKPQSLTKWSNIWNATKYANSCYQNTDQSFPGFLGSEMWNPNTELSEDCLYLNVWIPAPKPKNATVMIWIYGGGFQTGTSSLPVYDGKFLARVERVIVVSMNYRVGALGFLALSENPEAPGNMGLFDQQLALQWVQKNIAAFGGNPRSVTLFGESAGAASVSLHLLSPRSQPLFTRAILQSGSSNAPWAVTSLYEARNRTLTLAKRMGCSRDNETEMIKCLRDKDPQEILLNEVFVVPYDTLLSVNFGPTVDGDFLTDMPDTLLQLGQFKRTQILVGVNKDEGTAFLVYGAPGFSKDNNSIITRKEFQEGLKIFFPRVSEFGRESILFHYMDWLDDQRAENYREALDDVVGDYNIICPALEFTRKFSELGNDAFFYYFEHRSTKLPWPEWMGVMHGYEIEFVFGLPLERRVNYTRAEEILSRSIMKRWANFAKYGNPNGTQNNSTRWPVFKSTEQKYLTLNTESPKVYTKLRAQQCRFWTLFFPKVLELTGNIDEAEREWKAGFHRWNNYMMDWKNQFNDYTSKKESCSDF
Chain of Acetylcholinesterase (O42275 whole entry): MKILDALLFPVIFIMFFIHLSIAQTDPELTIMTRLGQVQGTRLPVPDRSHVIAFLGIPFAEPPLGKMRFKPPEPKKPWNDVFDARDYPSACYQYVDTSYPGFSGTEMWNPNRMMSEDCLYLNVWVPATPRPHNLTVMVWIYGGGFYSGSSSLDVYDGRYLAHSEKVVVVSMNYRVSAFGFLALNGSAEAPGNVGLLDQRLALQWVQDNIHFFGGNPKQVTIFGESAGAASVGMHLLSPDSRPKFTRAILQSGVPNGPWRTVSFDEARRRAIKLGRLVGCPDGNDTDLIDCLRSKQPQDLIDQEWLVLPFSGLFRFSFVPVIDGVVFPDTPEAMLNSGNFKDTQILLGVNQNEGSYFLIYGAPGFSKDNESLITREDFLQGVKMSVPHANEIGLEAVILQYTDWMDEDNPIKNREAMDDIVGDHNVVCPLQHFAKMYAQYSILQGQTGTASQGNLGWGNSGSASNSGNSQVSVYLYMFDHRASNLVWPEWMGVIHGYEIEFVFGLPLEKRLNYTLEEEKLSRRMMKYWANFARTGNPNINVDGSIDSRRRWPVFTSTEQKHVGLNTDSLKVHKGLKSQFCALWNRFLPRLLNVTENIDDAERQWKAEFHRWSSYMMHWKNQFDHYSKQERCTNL

SMILES	pIC50 [1]	pIC50 [2]	Ratio IC50 [3]	Activity [4]
O=C(COc1cc(=O)oc2ccccc12)NC1CCN(Cc2ccccc2)CC1	4.35	5.92	37	–
O=C(CCCOc1cc(=O)oc2ccccc12)N1CCC(O)(c2ccc(Cl)cc2)CC1	< 4.00	< 4.00	–	–
O=C(CCCOc1cc(=O)oc2ccccc12)N1CCC(O)(c2ccc(Br)cc2)CC1	< 4.00	< 4.00	–	–
COc1ccc(CCNC(=O)CCCOc2cc(=O)oc3ccccc23)cc1OC	< 4.00	< 4.00	–	–
O=C(CCCOc1cc(=O)oc2ccccc12)N1CCC(Cc2ccccc2)CC1	4.12	5.10	–	–
O=C(COc1cc(=O)oc2ccccc12)N1CCN(c2ccccc2O)CC1	< 4.00	4.67	–	840 mmol/g
O=C(CCCOc1cc(=O)oc2ccccc12)N1CCN(c2ccccc2F)CC1	< 4.00	< 4.00	–	–
O=C(CCCOc1cc(=O)oc2ccccc12)N1CCN(c2ccc(F)cc2)CC1	< 4.00	< 4.00	–	–
O=C(COc1cc(=O)oc2ccccc12)N1CCN(c2ccccc2)CC1	< 4.00	5.54	34	–
O=C(CCCOc1cc(=O)oc2ccccc12)N1CCN(c2ccc(Cl)c(Cl)c2)CC1	< 4.00	< 4.00	–	–
O=C(COc1cc(=O)oc2ccccc12)N1CCC(O)(c2ccc(Br)cc2)CC1	< 4.00	< 4.00	–	–
O=C(COc1cc(=O)oc2ccccc12)N1CCC(O)(c2ccc(Cl)cc2)CC1	< 4.00	< 4.00	–	–
O=C(COc1cc(=O)oc2ccccc12)N1CCN(c2ccccc2F)CC1	< 4.00	4.92	–	–
O=C(COc1cc(=O)oc2ccccc12)N1CCC(Cc2ccccc2)CC1	4.19	5.47	–	–
O=C1O[C@H]([C@@H](O)CO)C(O)=C1O	–	–	–	2250 mmol/g
O=C(CCCOc1cc(=O)oc2ccccc12)N1CCN(c2ccccc2O)CC1	< 4.00	< 4.00	–	770 mmol/g
O=C(COc1cc(=O)oc2ccccc12)N1CCN(c2ccc(F)cc2)CC1	4.12	5.68	34	–
O=C(CCCOc1cc(=O)oc2ccccc12)N1CCN(c2ccccc2)CC1	< 4.00	< 4.00	–	–
O=C(CCCOc1cc(=O)oc2ccccc12)NC1CCN(Cc2ccccc2)CC1	4.39	5.63	–	–
O=C(COc1cc(=O)oc2ccccc12)N1CCN(c2ccc(Cl)c(Cl)c2)CC1	4.05	5.64	34	–
